# In patent publication US20100298141A1, “SUBSTITUTED PYRIDINE N-OXIDE HERBICIDES” (E. I. DU PONT DE NEMOURS AND COMPANY, priority 2007, published 2010):
# Key:
# [1] = system: velvetleaf; experiment: Test A pre-/postemergence greenhouse test; type: in vivo, Abutilon theophrasti; details: for Velvetleaf plant response rating: 0 to 100 scale
# Outline: (§1)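 Pre: directed soil spray on seeded loam/sand. Post: foliar spray, plants 2–10 cm, 1–2 leaf stage, applied concurrently. Vehicle: non-phytotoxic solvent + surfactant. Greenhouse ~10 d; visual injury rating vs untreated controls.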
# [2] = system: woolly cupgrass; experiment: Test C pre-/postemergence test; type: in vivo, Eriochloa villosa; details: for Plant response rating, Cupgrass, Woolly: scale 0 to 100, 0 no effect, 100 complete control
# Outline: (§2)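 Test chemicals were formulated with surfactant in a non-phytotoxic solvent and sprayed both on freshly planted seeds (preemergence) and on 1- to 4-leaf plants of 2–18 cm (postemergence). Flooded-paddy pots received compound directly into 3 cm of standing water, maintained for the test.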
# [3] = system: johnsongrass; experiment: Test C pre-/postemergence test; type: in vivo, Sorghum halepense; details: for Plant response rating, Johnsongrass: scale 0 to 100, 0 no effect, 100 complete control
# Outline: as §2
# [4] = system: morningglory; experiment: Test C pre-/postemergence test; type: in vivo, Ipomoea coccinea; details: for Plant response rating, Morningglory: scale 0 to 100, 0 no effect, 100 complete control
# Outline: as §2
# [5] = system: eastern black nightshade; experiment: Test C pre-/postemergence test; type: in vivo, Solanum ptycanthum
# Outline: as §2
# [6] = system: wheat; experiment: Test A pre-/postemergence greenhouse test; type: in vivo, Triticum aestivum; details: for Wheat plant response rating: 0 to 100 scale
# Outline: as §1
# [7] = system: wheat; experiment: Test C pre-/postemergence test; type: in vivo, Triticum aestivum; details: for Wheat plant response rating: preemergence, scale 0 (no effect) to 100 (complete control); for Plant response rating, Wheat: scale 0 to 100, 0 no effect, 100 complete control
# Outline: as §2
# [8] = system: giant foxtail; experiment: Test C pre-/postemergence test; type: in vivo, Setaria faberii; details: for Plant response rating, Foxtail, Giant: scale 0 to 100, 0 no effect, 100 complete control
# Outline: as §2
# [9] = system: wild oat; experiment: Test C pre-/postemergence test; type: in vivo, Avena fatua; details: for Plant response rating, Oat, Wild: scale 0 to 100, 0 no effect, 100 complete control
# Outline: as §2
# [10] = system: catchweed bedstraw; experiment: Test C pre-/postemergence test; type: in vivo, Galium aparine
# Text: Seeds of plant species selected from blackgrass (Alopecurus myosuroides), downy brome (Bromus tectorum), green foxtail (Setaria viridis), Italian ryegrass (Lolium multiflorum), wheat (Triticum aestivum), wild oat (Avena fatua), catchweed bedstraw (Galium aparine), Russian thistle (Salsola kali), […] (Cynodon dactylon), Surinam grass (Brachiaria decumbens), cocklebur (Xanthium strumarium), corn (Zea mays), crabgrass (Digitaria sanguinalis), woolly cupgrass (Eriochloa villosa), giant foxtail (Setaria faberii), Goosegrass (Eleusin indica), johnsongrass (Sorghum halepense), kochia (Kochia scoparia), lambsquarters (Chenopodium album), morningglory (Ipomoea coccinea), eastern black nightshade (Solanum ptycanthum), yellow nutsedge (Cyperus esculentus), pigweed (Amaranthus retroflexus), common ragweed (Ambrosia elation), soybean (Glycine max), common (oilseed) sunflower (Helianthus annuus), and velvetleaf (Abutilon theophrasti) were planted and treated preemergence with test chemicals formulated in a non-phytotoxic solvent mixture which included a surfactant. At the same time, plants selected from these crop and weed species and also winter barley (Hordeum vulgare), canarygrass (Phalaris minor), and chickweed (Stellaria media) were treated with postemergence applications of some of the test chemicals formulated in the same manner. Plants ranged in height from 2 to 18 cm (1- to 4-leaf stage) for postemergence treatments. […] At time of treatment, test pots were flooded to 3 cm above the soil surface, treated by application of test compounds directly to the paddy water, and then maintained at that water depth for the duration of the test. […] A dash (-) response means no test result.
# [11] = system: velvetleaf; experiment: Test C pre-/postemergence test; type: in vivo, Abutilon theophrasti; details: Postemergence; for Plant response rating, Velvetleaf: scale 0 to 100, 0 no effect, 100 complete control
# Outline: as §2
# [12] = system: rice; experiment: Test C flooded paddy test; type: in vivo, Oryza sativa; details: Flood
# Outline: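 Flooded 3 cm over soil; compound into paddy water; depth kept constant. Greenhouse 13–15 d.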
# [13] = system: yellow nutsedge; experiment: Test C pre-/postemergence test; type: in vivo, Cyperus esculentus; details: for Plant response rating, Nutsedge, Yellow: scale 0 to 100, 0 no effect, 100 complete control
# Outline: as §2
# [14] = system: downy brome; experiment: Test C pre-/postemergence test; type: in vivo, Bromus tectorum; details: for Plant response rating, Bromegrass, Downy: scale 0 to 100, 0 no effect, 100 complete control
# Outline: as §2
# [15] = system: redroot pigweed; experiment: Test A pre-/postemergence greenhouse test; type: in vivo, Amaranthus retroflexus; details: for Pigweed plant response rating: 0 to 100 scale
# Outline: as §1
# [16] = system: corn; experiment: Test C pre-/postemergence test; type: in vivo, Zea mays; details: for Plant response rating, Corn: scale 0 to 100, 0 no effect, 100 complete control
# Outline: as §2
# [17] = Postemergence, 125 g ai/ha, 0 is no effect, 100 is complete control
# [18] = Postemergence, 500 g ai/ha, 0 is no effect, 100 is complete control
# [19] = Preemergence, 125 g ai/ha, 0 no effect, 100 complete control
# [20] = Preemergence, 500 g ai/ha, 0 to 100 scale where 0 is no effect and 100 is complete control
# [21] = 31 g ai/ha, Preemergence, scale 0 to 100
# [22] = 62 g ai/ha, preemergence, scale 0 (no effect) to 100 (complete control)
# [23] = preemergence, 125 g ai/ha, scale 0 (no effect) to 100 (complete control)
compound,measurement,setting,value
CC(c1c(C(F)(F)F)nn(C)c1OC(F)F)S(=O)(=O)c1cccc[n+]1[O-] (stereo not drawn) [Compound 5],Velvetleaf plant response rating,[1]; [17],60
same,Velvetleaf plant response rating,[1]; [18],80
same,Velvetleaf plant response rating,[1]; [19],90
same,"Plant response rating, Velvetleaf",[1]; [20],90
same,"Cupgrass, Woolly plant response rating",[2]; [21],85
same,"Cupgrass, Woolly plant response rating",[2]; [22],90
same,"Plant response rating (0 to 100), Cupgrass, Woolly","[2]; Postemergence, 31 g ai/ha",0
same,"Plant response rating, Cupgrass, Woolly","[2]; Postemergence, 62 g ai/ha",40
same,"Plant response rating, Cupgrass, Woolly","[2]; Postemergence, 125 g ai/ha",40
same,"Plant response rating, Cupgrass, Woolly","[2]; Postemergence, 250 g ai/ha",50
same,"Plant response rating (0 to 100), Cupgrass, Woolly","[2]; Preemergence, 250 g ai/ha",100
same,"Cupgrass, Woolly plant response rating",[2]; [23],100
same,Johnsongrass plant response rating,[3]; [21],100
same,Johnsongrass plant response rating,[3]; [22],100
same,"Plant response rating (0 to 100), Johnsongrass","[3]; Postemergence, 31 g ai/ha",0
same,"Plant response rating, Johnsongrass","[3]; Postemergence, 62 g ai/ha",0
same,"Plant response rating, Johnsongrass","[3]; Postemergence, 125 g ai/ha",0
same,"Plant response rating, Johnsongrass","[3]; Postemergence, 250 g ai/ha",10
same,"Plant response rating (0 to 100), Johnsongrass","[3]; Preemergence, 250 g ai/ha",100
same,Johnsongrass plant response rating,[3]; [23],100
same,Morningglory plant response rating,[4]; [21],85
same,Morningglory plant response rating,[4]; [22],100
same,"Plant response rating (0 to 100), Morningglory","[4]; Postemergence, 31 g ai/ha",5
same,"Plant response rating, Morningglory","[4]; Postemergence, 62 g ai/ha",5
same,"Plant response rating, Morningglory","[4]; Postemergence, 125 g ai/ha",10
same,"Plant response rating, Morningglory","[4]; Postemergence, 250 g ai/ha",10
same,"Plant response rating (0 to 100), Morningglory","[4]; Preemergence, 250 g ai/ha",100
same,Morningglory plant response rating,[4]; [23],100
same,Nightshade plant response rating,[5]; [21],100
same,Nightshade plant response rating,[5]; [22],100
same,"Plant response rating (0 to 100), Nightshade","[5]; Preemergence, 250 g ai/ha",100
same,Nightshade plant response rating,[5]; [23],100
same,Wheat plant response rating,[6]; [17],60
same,Wheat plant response rating,[6]; [18],70
same,Wheat plant response rating,[6]; [19],70
same,"Plant response rating, Wheat",[6]; [20],90
same,Wheat plant response rating,[7]; 62 g ai/ha,20
same,"Plant response rating (0 to 100), Wheat","[7]; Postemergence, 31 g ai/ha",0
same,"Plant response rating (0 to 100), Wheat","[7]; Postemergence, 62 g ai/ha",0
same,"Plant response rating, Wheat","[7]; Postemergence, 125 g ai/ha",30
same,"Plant response rating, Wheat","[7]; Postemergence, 250 g ai/ha",30
same,"Plant response rating (0 to 100), Wheat","[7]; Preemergence, 250 g ai/ha",98
same,Wheat plant response rating,[7]; 125 g ai/ha,70
same,"Foxtail, Giant plant response rating",[8]; [21],95
same,"Foxtail, Giant plant response rating",[8]; [22],95
same,"Plant response rating (0 to 100), Foxtail, Giant","[8]; Postemergence, 31 g ai/ha",0
same,"Plant response rating, Foxtail, Giant","[8]; Postemergence, 62 g ai/ha",5
same,"Plant response rating, Foxtail, Giant","[8]; Postemergence, 125 g ai/ha",40
same,"Plant response rating, Foxtail, Giant","[8]; Postemergence, 250 g ai/ha",70
same,"Plant response rating (0 to 100), Foxtail, Giant","[8]; Preemergence, 250 g ai/ha",100
same,"Foxtail, Giant plant response rating",[8]; [23],98
same,"Oat, Wild plant response rating",[9]; [21],20
same,"Oat, Wild plant response rating",[9]; [22],60
same,"Plant response rating (0 to 100), Oat, Wild","[9]; Postemergence, 31 g ai/ha",0
same,"Plant response rating, Oat, Wild","[9]; Postemergence, 62 g ai/ha",0
same,"Plant response rating, Oat, Wild","[9]; Postemergence, 125 g ai/ha",0
same,"Plant response rating, Oat, Wild","[9]; Postemergence, 250 g ai/ha",30
same,"Plant response rating (0 to 100), Oat, Wild","[9]; Preemergence, 250 g ai/ha",75
same,"Oat, Wild plant response rating",[9]; [23],70
same,Galium plant response rating,[10]; [21],85
same,Galium plant response rating,[10]; [22],90
same,"Plant response rating (0 to 100), Galium","[10]; Preemergence, 250 g ai/ha",100
same,Galium plant response rating,[10]; [23],100
same,"Plant response rating (0 to 100), Velvetleaf",[11]; 31 g ai/ha,0
same,"Plant response rating (0 to 100), Velvetleaf",[11]; 62 g ai/ha,0
same,"Plant response rating, Velvetleaf",[11]; 125 g ai/ha,5
same,"Plant response rating, Velvetleaf",[11]; 250 g ai/ha,50
same,"Plant response rating, Rice","[12]; 31 g ai/ha, scale 0 to 100 (0 no effect, 100 complete control)",40
same,"Plant response rating, Rice","[12]; 62 g ai/ha, scale 0 to 100, 0 no effect, 100 complete control, 13 to 15 days",80
same,"Plant response rating, Rice","[12]; 125 g ai/ha, scale 0 to 100, 0 no effect, 100 complete control, 13 to 15 days",85
same,"Plant response rating, Rice","[12]; 250 g ai/ha, scale 0 to 100 (0 no effect, 100 complete control)",85
same,"Nutsedge, Yellow plant response rating",[13]; [21],80
same,"Nutsedge, Yellow plant response rating",[13]; [22],95
same,"Plant response rating (0 to 100), Nutsedge, Yellow","[13]; Postemergence, 31 g ai/ha",0
same,"Plant response rating, Nutsedge, Yellow","[13]; Postemergence, 62 g ai/ha",0
same,"Plant response rating, Nutsedge, Yellow","[13]; Postemergence, 125 g ai/ha",0
same,"Plant response rating, Nutsedge, Yellow","[13]; Postemergence, 250 g ai/ha",10
same,"Plant response rating (0 to 100), Nutsedge, Yellow","[13]; Preemergence, 250 g ai/ha",100
same,"Nutsedge, Yellow plant response rating",[13]; [23],100
same,"Bromegrass, Downy plant response rating",[14]; [21],0
same,"Bromegrass, Downy plant response rating",[14]; [22],20
same,"Plant response rating (0 to 100), Bromegrass, Downy","[14]; Postemergence, 31 g ai/ha",0
same,"Plant response rating, Bromegrass, Downy","[14]; Postemergence, 62 g ai/ha",0
same,"Plant response rating, Bromegrass, Downy","[14]; Postemergence, 125 g ai/ha",0
same,"Plant response rating, Bromegrass, Downy","[14]; Postemergence, 250 g ai/ha",0
same,"Plant response rating (0 to 100), Bromegrass, Downy","[14]; Preemergence, 250 g ai/ha",60
same,"Bromegrass, Downy plant response rating",[14]; [23],25
same,Pigweed plant response rating,[15]; [17],60
same,Pigweed plant response rating,[15]; [18],80
same,Pigweed plant response rating,[15]; [19],100
same,"Plant response rating, Pigweed",[15]; [20],100
same,Corn plant response rating,[16]; [21],0
same,Corn plant response rating,[16]; [22],40
same,"Plant response rating (0 to 100), Corn","[16]; Postemergence, 31 g ai/ha",0
same,"Plant response rating, Corn","[16]; Postemergence, 62 g ai/ha",0
same,"Plant response rating, Corn","[16]; Postemergence, 125 g ai/ha",0
same,"Plant response rating, Corn","[16]; Postemergence, 250 g ai/ha",0
same,"Plant response rating (0 to 100), Corn","[16]; Preemergence, 250 g ai/ha",95
same,Corn plant response rating,[16]; [23],55
